Laboratory results taken from patent publication US9113629B2, “4-amino-6-(4-substituted-phenyl)-picolinates and 6-amino-2-(4-substituted-phenyl)-pyrimidine-4-carboxylates and their use as herbicides” (DOW AGROSCIENCES LLC, priority 2013, dated 2015).
Where two headings read alike, the source gives them in different places.

Experiments:
Test in all cases: Post-emergent Test III, herbicidal activity in wheat and barley
Type in all cases: in vivo
LAMSS = conditions: for pest or weed control at 35 g/ha / pest or weed control at 70 g/ha / pest or weed control at 140 g/ha: post-emergence, 504 h, read-out: Visual Growth Reduction (%) 21 Days After Application LAMSS; for pest or weed control at 35 g/ha: 35 g ai/ha; for pest or weed control at 70 g/ha: 70 g ai/ha; for pest or weed control at 140 g/ha: 140 g ai/ha; for GR50 LAMSS / GR80 LAMSS: probit analysis, 21 days after application; for GR50 LAMSS: dose for growth reduction of 50 percent; for GR80 LAMSS: dose for growth reduction of 80 percent
Method in brief: (§1)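 Plants at the second to third true-leaf stage, grown in a greenhouse at about 18/17 °C with a 14 h photoperiod, were sprayed post-emergence at 187 L/ha with the high rate and ½× to 1/16× serial dilutions in an acetone/DMSO/crop-oil/surfactant carrier. Injury was rated visually at 21 d on a 0–100% scale, and GR20–GR90 were derived by probit analysis.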

[1] = tested on: SETVI: green foxtail (Setaria viridis); conditions: for pest or weed control at 35 g/ha: 35 g ai/ha; for pest or weed control at 70 g/ha: 70 g ai/ha; for GR50 SETVI / GR80 SETVI: probit analysis
Method in brief: as §1

[2] = tested on: VERPE: bird's-eye speedwell (veronica persica)
Method in brief: as §1

[3] = tested on: KCHSC: kochia (Kochia scoparia); conditions: for pest or weed control at 35 g/ha / pest or weed control at 70 g/ha / pest or weed control at 140 g/ha: Bassia scoparia, post-emergence, 504 h, read-out: Visual Growth Reduction (%) 21 Days After Application KCHSC; for pest or weed control at 35 g/ha: 35 g ai/ha; for pest or weed control at 70 g/ha: 70 g ai/ha; for pest or weed control at 140 g/ha: 140 g ai/ha; for GR50 KCHSC / GR80 KCHSC: probit analysis
Method in brief: as §1

[4] = tested on: HORSS: barley, including spring and winter (Hordeum vulgare); conditions: for pest or weed control at 35 g/ha: 35 g ai/ha; for pest or weed control at 70 g/ha: 70 g ai/ha; for GR20 HORSS: probit analysis
Method in brief: as §1

[5] = tested on: TRZSS: wheat, including spring and winter (Triticum aestivum); conditions: for pest or weed control at 35 g/ha: 35 g ai/ha; for pest or weed control at 70 g/ha: 70 g ai/ha; for GR20 TRZSS: probit analysis
Method in brief: as §1

[6] = tested on: MATSS: scented mayweed (Matricaria chamomilla), pineappleweed (Matricaria matricarioides); conditions: for pest or weed control at 35 g/ha / pest or weed control at 70 g/ha / pest or weed control at 140 g/ha: Matricaria chamomilla, post-emergence, 504 h, read-out: Visual Growth Reduction (%) 21 Days After Application MATSS; for pest or weed control at 35 g/ha: 35 g ai/ha; for pest or weed control at 70 g/ha: 70 g ai/ha; for pest or weed control at 140 g/ha: 140 g ai/ha; for GR50 MATSS / GR80 MATSS: probit analysis, 21 days after application; for GR50 MATSS: dose for growth reduction of 50 percent; for GR80 MATSS: dose for growth reduction of 80 percent
Method in brief: as §1

[7] = tested on: LOLSS: ryegrass including, Italian ryegrass (Lolium multiflorum), rigid ryegrass (Lolium rigidum), annual ryegrass (Lolium multiflorum subsp. Gaudini); conditions: probit analysis
Method in brief: as §1

[8] = Setaria viridis, post-emergence, 504 h, read-out: Visual Growth Reduction (%) 21 Days After Application SETVI
[9] = dose for growth reduction of 50 percent, 21 days after application
[10] = dose for growth reduction of 80 percent, 21 days after application
[11] = Hordeum vulgare, post-emergence, 504 h, read-out: Visual Growth Reduction (%) 21 Days After Application HORSS
[12] = dose for growth reduction of 20 percent, 21 days after application, crop
[13] = Triticum aestivum, post-emergence, 504 h, read-out: Visual Growth Reduction (%) 21 Days After Application TRZSS
[14] = Setaria viridis, post-emergence, 504 h, Table 9, post-emergent, 21 d, read-out: Visual Growth Reduction (%) 21 Days After Application SETVI
[15] = Table 9, dose for 50 percent growth reduction, 21 d
[16] = Table 9, dose for 80 percent growth reduction, 21 d
[17] = Hordeum vulgare, post-emergence, 504 h, Table 9, post-emergent, 21 d, read-out: Visual Growth Reduction (%) 21 Days After Application HORSS
[18] = Table 9, dose for 20 percent growth reduction, 21 d
[19] = Triticum aestivum, post-emergence, 504 h, Table 9, post-emergent, 21 d, read-out: Visual Growth Reduction (%) 21 Days After Application TRZSS

Row | SMILES | pest or weed control at 35 g/ha (LAMSS) | pest or weed control at 70 g/ha (LAMSS) | pest or weed control at 140 g/ha (LAMSS) | GR50 LAMSS (LAMSS) | GR80 LAMSS (LAMSS) | pest or weed control at 35 g/ha [3] | pest or weed control at 70 g/ha [3] | pest or weed control at 140 g/ha [3] | GR50 KCHSC [3, 9] | GR80 KCHSC [3, 10] | pest or weed control at 35 g/ha [6] | pest or weed control at 70 g/ha [6] | pest or weed control at 140 g/ha [6] | GR50 MATSS [6] | GR80 MATSS [6] | GR50 LOLSS [7, 9] | GR80 LOLSS [7, 10] | further results
1 | Nc1c(F)c(-c2ccc(Cl)c(F)c2)nc(C(=O)O)c1Cl [Compound 217] | 95 to 100% | 95 to 100% | 95 to 100% | 1 g ai/ha | 2 g ai/ha | 85 to 94% | 95 to 100% | 95 to 100% | 2 g ai/ha | 6 g ai/ha | 85 to 94% | 85 to 94% | 85 to 94% | 34 g ai/ha | >140 g ai/ha | 32 g ai/ha | >140 g ai/ha | pest or weed control at 35 g/ha [1, 8]: 75 to 84%; pest or weed control at 70 g/ha [1, 8]: 75 to 84%; pest or weed control at 140 g/ha ([1]; Setaria viridis, post-emergence, 504 h, 140 g ai/ha, read-out: Visual Growth Reduction (%) 21 Days After Application SETVI): 75 to 84%; GR50 SETVI [1, 9]: 46 g ai/ha; GR80 SETVI [1, 10]: >140 g ai/ha; pest or weed control at 35 g/ha ([2]; Veronica persica, post-emergence, 504 h, 35 g ai/ha, read-out: Visual Growth Reduction (%) 21 Days After Application VERPE): 60 to 74%; pest or weed control at 70 g/ha ([2]; Veronica persica, post-emergence, 504 h, 70 g ai/ha, read-out: Visual Growth Reduction (%) 21 Days After Application VERPE): 60 to 74%; pest or weed control at 140 g/ha ([2]; Veronica persica, post-emergence, 504 h, 140 g ai/ha, read-out: Visual Growth Reduction (%) 21 Days After Application VERPE): 60 to 74%; GR50 VERPE ([2]; probit analysis, dose for growth reduction of 50 percent, 21 days after application): 19 g ai/ha; GR80 VERPE ([2]; probit analysis, dose for growth reduction of 80 percent, 21 days after application): 73 g ai/ha; pest or weed control at 35 g/ha [4, 11]: 75 to 84%; pest or weed control at 70 g/ha [4, 11]: 75 to 84%; pest or weed control at 140 g/ha ([4]; Hordeum vulgare, post-emergence, 504 h, 140 g ai/ha, read-out: Visual Growth Reduction (%) 21 Days After Application HORSS): 75 to 84%; GR20 HORSS [4, 12]: 7 g ai/ha; pest or weed control at 35 g/ha [5, 13]: 75 to 84%; pest or weed control at 70 g/ha [5, 13]: 75 to 84%; pest or weed control at 140 g/ha ([5]; Triticum aestivum, post-emergence, 504 h, 140 g ai/ha, read-out: Visual Growth Reduction (%) 21 Days After Application TRZSS): 85 to 94%; GR20 TRZSS [5, 12]: 2 g ai/ha
2 | COC(=O)c1nc(-c2ccc(F)c(F)c2F)c(F)c(N)c1Cl [Compound 186] | 75 to 84% | 85 to 94% | 85 to 94% | 1 g ai/ha | 25 g ai/ha | 60 to 74% | 60 to 74% | 60 to 74% | 1 g ai/ha | >140 g ai/ha | 0 to 29% | 0 to 29% | 0 to 29% | >140 g ai/ha | >140 g ai/ha | >140 g ai/ha | >140 g ai/ha | –
3 | C#Cc1ccc(-c2nc(N)c(OC)c(C(=O)O)n2)cc1 [Compound 28] | – | – | – | – | – | – | – | – | – | – | – | – | – | – | – | – | – | pest or weed control at 35 g/ha [1, 14]: 0 to 29%; pest or weed control at 70 g/ha [1, 14]: 0 to 29%; GR50 SETVI [1, 15]: >140 g ai/ha; GR80 SETVI [1, 16]: >140 g ai/ha; pest or weed control at 35 g/ha ([3]; Table 9, post-emergent, 21 d): 0 to 29%; pest or weed control at 70 g/ha ([3]; Table 9, post-emergent, 21 d): 30 to 44%; GR50 KCHSC [3, 15]: 88 g ai/ha; GR80 KCHSC [3, 16]: >140 g ai/ha; pest or weed control at 35 g/ha [4, 17]: 0 to 29%; pest or weed control at 70 g/ha [4, 17]: 30 to 44%; GR20 HORSS [4, 18]: 43 g ai/ha; GR20 TRZSS [5, 18]: 17 g ai/ha; pest or weed control at 35 g/ha [5, 19]: 30 to 44%; pest or weed control at 70 g/ha [5, 19]: 60 to 74%; GR50 LOLSS [7, 15]: >140 g ai/ha; GR80 LOLSS [7, 16]: >140 g ai/ha
